What was measured:
FGFR3 (V555M) = target: T1, FGFR3 (V555M) (Homo sapiens, UniProt P22607, V555M); test: Kinase binding assay (Kd), FGFR3 (V555M); settings: 11-point 3-fold dilution, qPCR readout
T1 construct: made in house; host or cells: E. coli host derived from BL21, infected with T7 phage
Procedure, shortened: (§1)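 Competition binding, phage-tagged kinase vs. bead-bound ligand; 11-pt 3-fold cpd series, 0.9% DMSO final; 1 h RT shaking; eluate kinase by qPCR; Kd via Hill fit (slope −1, Levenberg–Marquardt).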

[1] = test system: RT112/84 cells (Bladder Cancer, FGFR3-TACC3 fusion); test: Cancer cell line cell viability assay, RT112/84; assay type: cell-based; settings: Homo sapiens, 72 hours, Cell Titer-Glo 2.0, read-out: Cancer Cell Viability Assays RT112/84 (IC50 nM)
Excerpt: (§2) [table] To detect the change of intracellular ATP by Cell Titer-Glo® and to evaluate the inhibitory effect of the compounds on cancer cell lines by determining the in vitro IC50 value of the compounds. Cell Titer-Glo® 2.0 Luminescent cell viability assay reagent was purchased from Promega (Madison, Wis.). RT112/84, SNU-16, and KG-1 cell lines were purchased from American Type Culture Collection (Manassas, Va.). UM-UC-14 cell line was purchased from Sigma (St. Louis, Mo.). RT112/84, UM-UC-14, SNU-16, and KG-1 cells were cultured in RPMI1640 media supplemented with 10% fetal bovine serum. Cultures were maintained at 37° C. in a humidified atmosphere of 5% CO2 and 95% air. Cell Viability Assay Procedure: Cells were plated in 96-well clear bottom/white plates (Corning #3903) at 10,000 cells/well in 100 μl of media, incubated overnight. The next day, test compound DMSO stock solutions were made at 10 mM and 2 μM final concentration. Compounds were then added to cells in a 9-dose, […] dilution series starting at 30 μM with an HP 300e Digital Dispenser (each dose was applied in triplicate). DMSO was backfilled to each well up to 301 nL total volume of test compound+DMSO, and a total of 301 nL DMSO was added to a control/no test compound well in triplicate. The cells in cell culture plates were incubated with the compounds at 37° C. and 5% CO2 for 72 hours. Then 50 μl of Cell Titer Glo 2.0 reagent was added to each well of the cell culture plates. The contents were covered from light and mixed on an orbital shaker at room temperature for 10 min. Luminescence was recorded by a Synergy H1 Microplate Reader (Biotek, Winooski, Vt.). Cells were assessed as a percentage of DMSO only treated control cells. Curves were plotted and IC50 values were calculated using the GraphPad Prism 8 program based on a sigmoidal dose-response equation (4 parameter).

FGFR1 = target: T2, FGFR1 (Homo sapiens, UniProt P11362); test: Kinase binding assay (Kd), FGFR1; settings: 11-point 3-fold dilution, qPCR readout
T2 construct: made in house; host or cells: E. coli host derived from BL21, infected with T7 phage
T2 sequence (P11362 22-822): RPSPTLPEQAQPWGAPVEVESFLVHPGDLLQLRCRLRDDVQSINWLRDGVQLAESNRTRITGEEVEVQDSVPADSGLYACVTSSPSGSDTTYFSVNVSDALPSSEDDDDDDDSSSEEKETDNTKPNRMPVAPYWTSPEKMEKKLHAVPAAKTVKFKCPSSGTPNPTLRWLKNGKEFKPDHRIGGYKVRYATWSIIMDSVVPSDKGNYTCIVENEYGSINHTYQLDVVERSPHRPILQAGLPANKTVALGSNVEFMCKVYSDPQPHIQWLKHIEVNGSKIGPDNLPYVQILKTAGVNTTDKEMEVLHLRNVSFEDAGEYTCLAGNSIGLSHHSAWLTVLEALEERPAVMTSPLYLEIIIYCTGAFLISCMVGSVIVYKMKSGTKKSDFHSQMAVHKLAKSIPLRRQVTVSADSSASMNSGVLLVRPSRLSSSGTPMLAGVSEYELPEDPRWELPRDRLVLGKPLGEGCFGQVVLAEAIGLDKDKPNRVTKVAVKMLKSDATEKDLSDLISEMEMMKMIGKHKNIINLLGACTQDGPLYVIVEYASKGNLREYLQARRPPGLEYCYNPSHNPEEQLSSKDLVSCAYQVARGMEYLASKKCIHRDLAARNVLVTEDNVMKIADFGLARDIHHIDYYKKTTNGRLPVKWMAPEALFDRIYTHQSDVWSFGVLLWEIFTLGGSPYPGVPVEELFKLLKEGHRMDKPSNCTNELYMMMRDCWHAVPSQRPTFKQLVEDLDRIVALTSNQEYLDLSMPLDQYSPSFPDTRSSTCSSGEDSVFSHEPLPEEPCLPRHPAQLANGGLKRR
Procedure, shortened: as §1

[2] = target: T3, FGFR3-BAIAP2L1 Ba/F3 cells (Homo sapiens, UniProt P22607); test: Ba/F3 cell viability assay, FGFR3; assay type: cell-based; settings: FGFR3-BAIAP2L1 fusion Ba/F3, 48 hours, Cell Titer-Glo 2.0; read-out: Ba/F3 Cells FGFR3 (IC50 nM)
T3 construct: Ba/F3 FGFR3; FGFR3--BAIAP2L1 fusion; Advanced Cellular Dynamics, (Seattle, WA); fused on or other part: Q9UHR4 (BAR/IMD domain-containing adapter protein 2-like 1)
T3 sequence (P22607 whole entry, change not shown, the tested form may be a part): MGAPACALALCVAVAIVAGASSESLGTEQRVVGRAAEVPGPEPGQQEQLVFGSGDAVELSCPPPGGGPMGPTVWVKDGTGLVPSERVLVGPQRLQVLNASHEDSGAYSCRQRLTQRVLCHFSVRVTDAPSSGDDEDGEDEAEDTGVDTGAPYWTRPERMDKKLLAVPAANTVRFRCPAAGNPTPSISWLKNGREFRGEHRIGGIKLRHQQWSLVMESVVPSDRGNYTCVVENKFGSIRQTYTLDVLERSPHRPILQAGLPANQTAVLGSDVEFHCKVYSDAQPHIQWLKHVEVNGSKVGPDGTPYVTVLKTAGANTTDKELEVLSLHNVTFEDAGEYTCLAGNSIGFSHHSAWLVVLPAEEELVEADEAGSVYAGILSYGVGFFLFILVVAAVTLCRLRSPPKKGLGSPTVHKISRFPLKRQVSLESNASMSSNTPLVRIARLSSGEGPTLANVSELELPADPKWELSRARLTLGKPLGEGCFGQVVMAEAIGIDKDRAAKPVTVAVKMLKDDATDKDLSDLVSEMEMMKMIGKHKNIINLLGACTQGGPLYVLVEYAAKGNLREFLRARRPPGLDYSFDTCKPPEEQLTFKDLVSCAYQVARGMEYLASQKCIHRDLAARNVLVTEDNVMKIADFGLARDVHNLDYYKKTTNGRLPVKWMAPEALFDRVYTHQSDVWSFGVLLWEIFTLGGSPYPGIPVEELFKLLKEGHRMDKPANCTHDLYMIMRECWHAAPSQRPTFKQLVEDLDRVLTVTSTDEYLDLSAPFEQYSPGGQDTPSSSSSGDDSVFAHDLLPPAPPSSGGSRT
Excerpt: Experimental Purpose: Recombinant kinase fusions are transduced into parental Ba/F3, which becomes dependent upon this constitutive kinase activity for IL3-independent survival. Inhibition of kinase activity leads to cell death, which is monitored using CellTiter-Glo® 2.0 (Promega) which measures intracellular ATP concentration that in turn serves as a marker for viability. FGFR1-BCR Ba/F3 and FGFR3-BAIAP2L1 Ba/F3 were obtained from Advanced Cellular Dynamics (Seattle, Wash.)
Cell Viability Assay Procedure: Cell Titer-Glo® 2.0 Luminescent cell viability assay reagent was purchased from Promega (Madison, Wis.). FGFR1-BCR Ba/F3 and FGFR3-BAIAP2L1 Ba/F3 cells were cultured in RPMI1640 media supplemented with 10% fetal bovine serum. Cultures were maintained at 37° C. in a humidified atmosphere of 5% CO2 and 95% air.
Cells were plated in 96-well clear bottom/white plates (Corning #3903) at 10,000 cells/well in 100 μl of media, incubated overnight. The next day, test compound DMSO stock solutions were made at 10 mM and 2 μM final concentration. Compounds were then added to cells in a 9-dose, 10-fold dilution series starting at 30 μM with an HP 300e Digital Dispenser (each dose was applied in triplicate). DMSO was backfilled to each well up to 301 nL total volume of test compound+DMSO, and a total of 301 nL DMSO was added to a control/no test compound well in triplicate. The cells in cell culture plates were incubated with the compounds at 37° C. and 5% CO2 for 48 hours. Then 50 μl of Cell Titer Glo 2.0 reagent was added to each well of the cell culture plates. The contents were covered from light and mixed on an orbital shaker at room temperature for 10 min. Luminescence was recorded by a Synergy H1 Microplate Reader (Biotek, Winooski, Vt.). Cells were assessed as a percentage of DMSO only treated control cells. Curves were plotted and IC50 values were calculated using the GraphPad Prism 8 program based on a sigmoidal dose-response equation (4 parameter).

[3] = test system: SNU-16 cells (Gastric Carcinoma, FGFR2 amplification); test: Cancer cell line cell viability assay, SNU-16; assay type: cell-based; settings: Homo sapiens, 72 hours, Cell Titer-Glo 2.0, read-out: Cancer Cell Viability Assays SNU-16 (IC50 nM)
Excerpt: as §2

T1 sequence (P22607 23-806 V555M): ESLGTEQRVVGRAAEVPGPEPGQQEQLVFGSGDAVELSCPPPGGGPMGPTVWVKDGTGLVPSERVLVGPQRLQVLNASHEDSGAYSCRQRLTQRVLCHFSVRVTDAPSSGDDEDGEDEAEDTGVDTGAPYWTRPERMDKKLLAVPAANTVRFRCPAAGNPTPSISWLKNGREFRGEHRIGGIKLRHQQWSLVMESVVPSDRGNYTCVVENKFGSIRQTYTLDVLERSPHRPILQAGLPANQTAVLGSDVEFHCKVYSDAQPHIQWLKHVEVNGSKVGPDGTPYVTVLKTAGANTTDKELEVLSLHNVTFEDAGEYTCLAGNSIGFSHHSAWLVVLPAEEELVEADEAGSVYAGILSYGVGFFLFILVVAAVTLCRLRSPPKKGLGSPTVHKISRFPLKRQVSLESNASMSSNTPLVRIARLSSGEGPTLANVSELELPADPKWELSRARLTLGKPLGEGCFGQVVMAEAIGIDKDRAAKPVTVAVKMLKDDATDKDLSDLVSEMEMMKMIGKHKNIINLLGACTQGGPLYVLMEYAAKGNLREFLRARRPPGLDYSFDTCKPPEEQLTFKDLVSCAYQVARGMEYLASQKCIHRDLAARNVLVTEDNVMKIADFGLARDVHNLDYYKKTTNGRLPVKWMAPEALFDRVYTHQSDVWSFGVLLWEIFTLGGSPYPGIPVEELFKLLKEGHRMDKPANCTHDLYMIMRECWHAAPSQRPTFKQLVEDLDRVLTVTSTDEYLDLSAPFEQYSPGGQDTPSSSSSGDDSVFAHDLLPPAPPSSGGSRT

Structure (SMILES)	Kd (FGFR3 (V555M)) [nM]	IC50 [1] [nM]	Kd (FGFR1) [nM]	GI50 [2] [nM]	IC50 [3] [nM]
C=CC(=O)Nc1ccc2c(c1)c(C)cn2-c1nc(Nc2ccc(N=S(C)(C)=O)c(F)c2)ncc1Cl [Example 60, N-[1-[5-Chloro-2-[4-[[dimethyl(oxo)-λ^6-sulfanylidene]amino]-3-fluoro-anilino]pyrimidin-4-yl]-3-methyl-indol-5-yl]prop-2-enamide]	1.7	16	14	10	–
C=CC(=O)Nc1ccc2c(c1)c(C)cn2-c1nc(Nc2ccc(N=S(C)(C)=O)cc2)ncc1Cl [Example 61, N-[1-[5-Chloro-2-[4-[[dimethyl(oxo)-λ^6-sulfanylidene]amino]anilino]pyrimidin-4-yl]-3-methyl-indol-5-yl]prop-2-enamide]	2	23	21	15	–
C=CC(=O)Nc1ccc2c(c1)c(C)cn2-c1nc(Nc2ccc(N=S(C)(C)=O)c(F)c2)ncc1C#N [Example 62, N-[1-[5-Cyano-2-[4-[[dimethyl(oxo)-λ^6-sulfanylidene]amino]-3-fluoro-anilino]pyrimidin-4-yl]-3-methyl-indol-5-yl]prop-2-enamide]	11	64	79	46	–
C=CC(=O)Nc1ccc2c(c1)c(C)cn2-c1nc(Nc2ccc(N=S(C)(C)=O)c(F)c2)ncc1C [Example 63, N-[1-[2-[4-[[dimethyl(oxo)-λ^6-sulfanylidene]amino]-3-fluoro-anilino]-5-methyl-pyrimidin-4-yl]-3-methyl-indol-5-yl]prop-2-enamide]	1	8	10	5	–
C=CC(=O)Nc1ccc2c(c1)c(C)cn2-c1nc(Nc2ccc(N=S(C)(C)=O)c(OC)c2)ncc1Cl [Example 64, N-[1-[5-Chloro-2-[4-[[dimethyl(oxo)-λ^6-sulfanylidene]amino]-3-methoxy-anilino]pyrimidin-4-yl]-3-methyl-indol-5-yl]prop-2-enamide]	1	12	5	12	–
C=CC(=O)Nc1ccc2c(ccn2-c2nc(Nc3ccc(N=S(C)(C)=O)cc3)ncc2Cl)c1 [Example 66, N-[1-[5-chloro-2-[4-[[dimethyl(oxo)-λ^6-sulfanylidene]amino]anilino]-pyrimidin-4-yl]indol-5-yl]prop-2-enamide]	5.3	113	61	28	65
C=CC(=O)Nc1ccc2c(ccn2-c2nc(Nc3ccc(S(C)(=N)=O)cc3)ncc2Cl)c1 (stereo not shown) [Example 70, N-[1-[5-Chloro-2-[4-(methylsulfonimidoyl)anilino]-pyrimidin-4-yl]indol-5-yl]prop-2-enamide]	9.2	159	230	34	12
C=CC(=O)Nc1ccc2c(-c3nc(Nc4ccc(N=S(C)(C)=O)cc4)ncc3Cl)cn(C)c2c1 [Example 92, N-[3-[5-chloro-2-[4-[[dimethyl(oxo)-λ^6-sulfanylidene]amino]anilino]pyrimidin-4-yl]-1-methyl-indol-6-yl]prop-2-enamide]	3	47	63	15	–

Source: patent US20230115945A1, “AMINOPYRIMIDINE COMPOUNDS” (TYRA BIOSCIENCES, INC., priority 2019, published 2023)
